The record followed here is patent US7071182B2, “Antagonists of melanin concentrating hormone effects on the melanin concentrating hormone receptor” (Abbott Laboratories, priority 2003, dated 2006).

This series is described as follows: Pharmacokinetic drug levels in whole brain after 10 mpk oral dose in DIO mice. To be noted: harvested 0.5-24 h after the dose. It is filed as in vivo.

Take `O=C(Nc1ccc(Oc2ccccc2)cc1)Nc1ccc2c(cnn2CCN2CCCC2)c1` [Example 24, N-(4-phenoxyphenyl)-N′-[1-(2-pyrrolidin-1-ylethyl)-1H-indazol-5-yl]urea]: the “Brain Conc. AUC” value came to 1428 ng·h/g.
